Experimental data taken from publication PMC9951879, “Synthesis of New Shogaol Analogues as NRF2 Activators and Evaluation of Their Anti-Inflammatory Activity, Modes of Action and Metabolic Stability” (Antioxidants, 2023).
Like-named read-outs stand apart in the source and are kept apart here.

Experiments:
NF-κB p65 = NF-κB p65 ELISA in LPSEc-stimulated BV-2 cell lysates; format: cell-based, mouse; settings: LPSEc 200 ng/mL; for NF-κB p65 level: 1 μM; for inhibition at 1 µM: Mus musculus, BV-2, 1 μM, read-out: percent NF-κB inhibition
Method: (§1) The anti-inflammatory activity of the STCs was determined in E. coli lipopolysaccharide (LPSEc; Sigma Aldrich, USA)-induced inflammation in NRF2-proficient and NRF2 siRNA-transfected mouse microglial (BV-2) cells. The NRF2 was silenced in BV-2 cells using NRF2 siRNA (Santa Cruz Biotechnology, Dallas, TX, USA) in Opti-MEM transfection medium (Thermo Fisher Scientific, USA) using Lipofectamine^TM LTX reagent with PLUS^TM reagent (Thermo Fisher Scientific, USA) following the manufacturer’s protocol and reported method. The cells (5 × 10^5 cells/well) were allowed to form a monolayer by incubating them for 24 h and then adding LPSEc (200 ng/mL) for 4 h. The STCs (1 µM) were then added and incubated for another 20 h. The nitric oxide (NO) level in cell supernatant was determined using the Griess reagent kit (Thermo Fisher Scientific, USA). The levels of proinflammatory cytokines (IL-1β, IL-6, IFN-γ, and TNF-α) in cell supernatant solutions were determined using commercially available ELISA kits (Abcam, Cambridge, UK). The cell pellets were lysed using Cell Lysis buffer (Thermo Fisher Scientific, Waltham, MA, USA) following the manufacturer’s instructions. The supernatant solution in the wells was replaced with PBS, and cells were detached by scraping, washed with PBS, and centrifuged to collect the cell pellet. The cell pellet was lysed on ice in a cell lysis buffer for half an hour, vortexing at regular intervals. The cell lysate was centrifuged at 15,000 rpm for 15 min at 4 °C. The clear lysate was stored at −80 °C until further use. The protein concentration was determined using Bradford’s assay kit (Thermo Fisher Scientific, USA) following the manufacturer’s instructions. The expression of COX-2, NF-κB p65, NRF2, and HO-1 in cell lysates was determined using commercially available ELISA kits (Abcam, St, Louis, Missouri, USA) following the manufacturer’s protocol. In addition, the thiol content was determined using a thiol quantification assay kit (Abcam, USA).

[1] = tested on: NAD(P)H quinone oxidoreductase 1 (NQO1); experiment: Prochaska microtiter plate bioassay, NQO1 induction in Hepa-1c1c7 cells; format: cell-based, mouse
Method: The effect of shogaol thiophene compounds (STCs) on NRF2 activation is determined by measuring the NAD(P)H quinone oxidoreductase 1 (NQO1) inducer activity, as reported in our previous studies. The mouse hepatoma cells (Hepa-1c1c7, 1 × 10^4 per well) were incubated with STCs (10, 1, 0.1, 0.01, and 0.001 µM) for 48 h. The cells were lysed using digitonin (0.8 mg/mL and 2 mM EDTA; Acros, UK), and the protein concentration was determined using Bradford’s assay kit (Thermo Fisher Scientific, USA). The cell lysate was incubated with a reaction mixture of 0.5 M Tris-Cl buffer (Calbiochem, USA), 7.5 mM FAD (Acros, UK), 150 mM glucose-6-phosphate (Calbiochem, San Diego, CA, USA), 2 U/mL glucose-6-phosphate dehydrogenase (Calbiochem, USA), 50 mM NADP+ (Sigma Aldrich, USA), 25 mM menadione (Sigma Aldrich, USA), and 0.7 mM MTT (Sigma Aldrich, USA) at 37 °C for 5 min. The absorbance was recorded at 610 nm using a microplate reader (Spectramax M3, Molecular Devices, San Jose, CA, USA), and the values were normalised to the total protein content.

COX-2 = COX-2 ELISA in LPSEc-stimulated BV-2 cell lysates; format: cell-based, mouse; settings: LPSEc 200 ng/mL; for COX-2 level: 1 μM; for inhibition at 1 µM: Mus musculus, BV-2, 1 μM, read-out: percentage of COX-2 inhibition
Method: as §1

[2] = Liver microsomal stability, human; format: in vitro ADME; settings: for Clint / half-life at 1 μM: human liver microsomes, 1 μM (verapamil 0.5 μM)
Method: (§2) The liver microsomes of humans, rats, and mice were purchased from Merck (human, #M0567; rat, #M9066; mouse, #M9441). The metabolic stability of 6-shogaol and STCs (1 μM effective concentration; 5 μL) was mixed with liver microsomes (0.5 mg mL^−1; 445 μL) in a microcentrifuge tube. Verapamil (0.5 μM) was used as the positive control. The microsome and compound mixture were shaken on a plate shaker for 5 min to ensure homogeneity. NADPH (1 mM; 50 μL) was added to the mixture to start the metabolic reaction. The reaction mixture was incubated at 37 °C for 0, 3, 6, 15, 30, 45, and 60 min. The mixture (20 μL) was sampled and quenched with 180 μL of acetonitrile with internal standard (Donepezil 50 ng/mL) to terminate the metabolic reaction at each time point. Ultrapure water (80 μL) was added, and contents in the microcentrifuge tubes were centrifuged at 3800 rpm at 4 °C for 10 min. […] Each set of experiments was repeated three times in human, rat, and mouse liver microsomes. The concentration of the compounds versus time was plotted to determine the elimination rate constant (Kel). The intrinsic clearance (Clint) and half-life (t1/2) were calculated using the following equations.

[3] = Liver microsomal stability, mouse; format: in vitro ADME; settings: mouse liver microsomes, 1 μM (verapamil 0.5 μM)
Method: as §2

IL-6 = IL-6 ELISA in LPSEc-stimulated BV-2 cells; format: cell-based, mouse; settings: LPSEc 200 ng/mL; for IL-6 level: 1 μM; for inhibition at 1 µM: Mus musculus, BV-2, 1 μM, read-out: percentage of IL-6 inhibition
Method: as §1

IFN-γ = IFN-γ ELISA in LPSEc-stimulated BV-2 cells; format: cell-based, mouse; settings: LPSEc 200 ng/mL; for IFN-γ level: 1 μM; for inhibition at 1 µM: Mus musculus, BV-2, 1 μM, read-out: percentage of IFN-γ inhibition
Method: as §1

nitric oxide (NO) = experiment: Nitric oxide (Griess) in LPSEc-stimulated BV-2 cells; format: cell-based, mouse; settings: LPSEc 200 ng/mL; for NO production: 1 μM; for inhibition at 1 µM: Mus musculus, BV-2, 1 μM, read-out: percentage of NO inhibition
Method: as §1

KEAP1-NRF2 interaction = biological target: T1, KEAP1-NRF2 interaction (Homo sapiens, UniProt Q14145); experiment: KEAP1-Nrf2 inhibitor screening, fluorescence polarisation assay; format: binding; settings: KEAP1 Kelch domain, read-out: IC50, NRF2-KEAP1 inhibition
T1 construct: purchased BPS Bioscience
Method: The KEAP1-Nrf2 inhibitor screening assay kit (BPS Bioscience, San Diego, California, USA) was used to determine the effect of STCs in inhibiting KEAP1-NRF2 interaction following the manufacturer’s protocol and our reported method. The STC solutions were diluted with the assay buffer, and 5 μL of the STC solutions were incubated at room temperature for 30 min in the peptide mixture containing 0.5 μL NRF2 peptide (1 μM) and 20 μL KEAP1 (15 ng/μL). The fluorescence polarisation (FP) was measured using a microplate reader at λex 485 nm and λem 530 nm. The following equation was used to determine the per cent KEAP1-NRF2 inhibitory effect of the STCs. Keap1−Nrf2 inhbitory activity %=1−Relative FP of STC/Relative FP of postive control×100

T1 sequence (Q14145 2-624 limits assumed): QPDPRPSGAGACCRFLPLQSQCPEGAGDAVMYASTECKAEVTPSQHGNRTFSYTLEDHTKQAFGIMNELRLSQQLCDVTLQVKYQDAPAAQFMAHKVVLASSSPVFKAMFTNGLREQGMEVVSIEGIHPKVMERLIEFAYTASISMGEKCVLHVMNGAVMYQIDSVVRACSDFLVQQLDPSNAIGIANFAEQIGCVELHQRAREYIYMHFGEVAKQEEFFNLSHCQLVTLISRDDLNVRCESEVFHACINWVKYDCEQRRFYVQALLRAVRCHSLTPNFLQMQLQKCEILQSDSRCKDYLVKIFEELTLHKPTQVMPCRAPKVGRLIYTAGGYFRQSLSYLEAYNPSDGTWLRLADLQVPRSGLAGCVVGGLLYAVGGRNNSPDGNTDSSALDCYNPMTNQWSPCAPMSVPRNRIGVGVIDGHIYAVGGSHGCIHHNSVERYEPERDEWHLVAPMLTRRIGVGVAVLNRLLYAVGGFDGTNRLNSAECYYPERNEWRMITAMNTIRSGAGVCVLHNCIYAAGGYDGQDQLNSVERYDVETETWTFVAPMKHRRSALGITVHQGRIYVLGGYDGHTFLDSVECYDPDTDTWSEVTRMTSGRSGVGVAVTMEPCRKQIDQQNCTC

Row | SMILES | NF-κB p65 level (NF-κB p65; NRF2-proficient BV-2 cells) | NF-κB p65 level (NF-κB p65; NRF2-silenced BV-2 cells) | concentration toxic to the cells in the NQO1 assay ([1]; Hepa-1c1c7 cells) | COX-2 level (COX-2; NRF2-proficient BV-2 cells) | COX-2 level (COX-2; NRF2-silenced BV-2 cells) | Clint [2] | half-life at 1 μM [2] | Clint [3] | half-life at 1 μM [3] | IL-6 level (IL-6; NRF2-proficient BV-2 cells) | IL-6 level (IL-6; NRF2-silenced BV-2 cells) | IFN-γ level (IFN-γ; NRF2-proficient BV-2 cells) | IFN-γ level (IFN-γ; NRF2-silenced BV-2 cells) | NO production (nitric oxide (NO); NRF2-proficient BV-2 cells) | NO production (nitric oxide (NO); NRF2-silenced BV-2 cells) | IC50 (KEAP1-NRF2 interaction) | inhibition at 1 µM (NF-κB p65; NRF2-proficient BV-2 cells) | inhibition at 1 µM (NF-κB p65; NRF2-silenced BV-2 cells) | inhibition at 1 µM (COX-2; NRF2-proficient BV-2 cells) | inhibition at 1 µM (COX-2; NRF2-silenced BV-2 cells) | other results
1 | COc1cc(CCC(=O)/C=C/c2ccc([N+](=O)[O-])s2)ccc1O [STC8, (E)-5-(4-Hydroxy-3-methoxyphenyl)-1-(5-nitrothiophen-2-yl)pent-1-en-3-one] | 75.6 ± 5.04 ng/mL | 131.57 ± 0.15 ng/mL | greater than 1 μM | 4.10 ± 0.10 ng/mL | 4.47 ± 0.15 ng/mL | 6.95 ± 1.52 mL/min/g liver | 10.5 min | 11.26 ± 2.69 mL/min/g liver | 6.46 min | 431.667 ± 3.06 pg/mL | 846.67 ± 11.68 pg/mL | 24.63 ± 0.64 pg/mL | 37.86 ± 1.69 pg/mL | 6.38 ± 0.04 µM | 8.86 ± 0.38 µM | 900 ± 50 nM | – | – | – | – | CD (concentration required to double the NQO1 level) ([1]; Hepa-1c1c7 cells, 48 h): did not show the CD value
2 | CCCCC/C=C/C(=O)CCc1ccc(O)c(OC)c1 [6-shogaol, reference compound] | 70.54 ± 5.04 ng/mL | 132.17 ± 4.52 ng/mL | 10 µM | 4.30 ± 0.10 ng/mL | 6.03 ± 0.21 ng/mL | 7.56 ± 1.24 mL/min/g liver | 9.63 min | 14.32 ± 1.51 mL/min/g liver | 5.08 min | 435.67 ± 7.77 pg/mL | 852.67 ± 5.69 pg/mL | 25.75 ± 0.72 pg/mL | 37.52 ± 1.01 pg/mL | 6.32 ± 0.03 µM | 8.56 ± 0.36 µM | 830 ± 100 nM | 44% | 4.61% | 35.5% | 11.7% | EC (2-fold NQO1 induction) ([1]; Mus musculus, Hepa-1c1c7, 48 h, Hepa-1c1c7 cells, 48 h, read-out: CD (concentration required to double the NQO1 level)): 4.12 ± 0.52 µM; inhibition at 1 µM (IL-6; NRF2-proficient BV-2 cells): 53%; inhibition at 1 µM (IL-6; NRF2-silenced BV-2 cells): 6.27%; inhibition at 1 µM (IFN-γ; NRF2-proficient BV-2 cells): 36.3%; inhibition at 1 µM (IFN-γ; NRF2-silenced BV-2 cells): 10.5%; inhibition at 1 µM (nitric oxide (NO); NRF2-proficient BV-2 cells): 40%; inhibition at 1 µM (nitric oxide (NO); NRF2-silenced BV-2 cells): 24.7%
3 | COc1cc(CCC(=O)/C=C/c2cc(-c3ccccc3)cs2)ccc1O [STC5, (E)-5-(4-Hydroxy-3-methoxyphenyl)-1-(4-phenylthiophen-2-yl)pent-1-en-3-one] | 41.5 ± 0.79 ng/mL | 86.3 ± 1.03 ng/mL | – | – | 3.48 ± 0.09 ng/mL | 5.09 ± 0.98 mL/min/g liver | 14.3 min | 6.42 ± 1.52 mL/min/g liver | 11.3 min | 212.33 ± 6.11 pg/mL | 748.67 ± 8.33 pg/mL | 14.34 ± 1.10 pg/mL | 31.19 ± 0.85 pg/mL | 2.58 ± 0.04 µM | – | 40 ± 1 nM | 67.1% | 37.7% | 76% | 49.1% | times more potent than 6-shogaol (NRF2 activation) ([1]; versus 6-shogaol): 65 times; half-life in liver microsomes, times longer than that of 6-shogaol ([2]; liver microsomes, species not stated, versus 6-shogaol): about 1.5 times; inhibition at 1 µM (IL-6; NRF2-proficient BV-2 cells): 77.1%; inhibition at 1 µM (IL-6; NRF2-silenced BV-2 cells): 17.7%; inhibition at 1 µM (IFN-γ; NRF2-proficient BV-2 cells): 42.7%; inhibition at 1 µM (IFN-γ; NRF2-silenced BV-2 cells): 25.6%; inhibition at 1 µM (nitric oxide (NO); NRF2-proficient BV-2 cells): 75.5%; inhibition at 1 µM (nitric oxide (NO); NRF2-silenced BV-2 cells): 64.8%
